What was measured:
[1] = target: Mitogen-activated protein kinase 10 (Homo sapiens) (UniProt P53779); conditions: Compound concentration 1000.0 nM
[2] = target: TRAF2 and NCK-interacting protein kinase (Homo sapiens) (UniProt Q9UKE5); conditions: Compound concentration 1000.0 nM
[3] = target: Activin receptor type-2B (Homo sapiens) (UniProt Q13705); conditions: Compound concentration 1000.0 nM
[4] = target: Mu-type opioid receptor (Homo sapiens) (UniProt P35372); conditions: Compound concentration 10.0 uM
[5] = target: cGMP-dependent protein kinase 1 (Homo sapiens) (UniProt Q13976); conditions: Compound concentration 1000.0 nM
[6] = tested on: Phosphatidylinositol 4,5-bisphosphate 3-kinase catalytic subunit alpha isoform (Homo sapiens), P42336 [H1047L]; conditions: Compound concentration 1000.0 nM
[7] = target: Interleukin-1 receptor-associated kinase 1 (Homo sapiens) (UniProt P51617); conditions: Compound concentration 1000.0 nM
[8] = target: Serine/threonine-protein kinase Nek11 (Homo sapiens) (UniProt Q8NG66); conditions: Compound concentration 1000.0 nM
[9] = target: Aurora kinase A (Homo sapiens) (UniProt O14965); conditions: Compound concentration 1000.0 nM
[10] = target: Rhodopsin kinase GRK1 (Homo sapiens) (UniProt Q15835); conditions: Compound concentration 1000.0 nM
[11] = target: Dual specificity mitogen-activated protein kinase kinase 2 (Homo sapiens) (UniProt P36507); conditions: Compound concentration 1000.0 nM
[12] = target: T1, GABA-A receptor; anion channel (Rattus norvegicus) (UniProt O09028+P15431+P18506+P18508+P19969+P20236+P23574+P23576+P28471+P28473+P30191+P62813+P63079+P63138+Q91ZM7+Q9ES14); conditions: Compound concentration 10.0 uM
[13] = tested on: Phosphatidylinositol 4,5-bisphosphate 3-kinase catalytic subunit alpha isoform (Homo sapiens), P42336 [I800L]; conditions: Compound concentration 1000.0 nM
[14] = target: Mitogen-activated protein kinase kinase kinase 7 (Homo sapiens) (UniProt O43318); conditions: Compound concentration 1000.0 nM
[15] = target: Tyrosine-protein kinase Mer (Homo sapiens) (UniProt Q12866); conditions: Compound concentration 1000.0 nM
[16] = target: Dual serine/threonine and tyrosine protein kinase (Homo sapiens) (UniProt Q6XUX3); conditions: Compound concentration 1000.0 nM
[17] = target: Cyclin-dependent kinase 2 (Homo sapiens) (UniProt P24941); conditions: Compound concentration 1000.0 nM
[18] = target: Phosphatidylinositol 4-phosphate 5-kinase type-1 alpha (Homo sapiens) (UniProt Q99755); conditions: Compound concentration 1000.0 nM
[19] = target: RAF proto-oncogene serine/threonine-protein kinase (Homo sapiens) (UniProt P04049); conditions: Compound concentration 1000.0 nM
[20] = target: Mitogen-activated protein kinase kinase kinase 20 (Homo sapiens) (UniProt Q9NYL2); conditions: Compound concentration 1000.0 nM
[21] = target: Myotonin-protein kinase (Homo sapiens) (UniProt Q09013); conditions: Compound concentration 1000.0 nM
[22] = target: Serine/threonine-protein kinase Nek5 (Homo sapiens) (UniProt Q6P3R8); conditions: Compound concentration 1000.0 nM
[23] = target: Tyrosine-protein kinase Tec (Homo sapiens) (UniProt P42680); conditions: Compound concentration 1000.0 nM
[24] = target: MAP kinase-activated protein kinase 2 (Homo sapiens) (UniProt P49137); conditions: Compound concentration 1000.0 nM
[25] = target: Cyclin-dependent kinase 11A (Homo sapiens) (UniProt Q9UQ88); conditions: Compound concentration 1000.0 nM
[26] = target: Peripheral plasma membrane protein CASK (Homo sapiens) (UniProt O14936); conditions: Compound concentration 1000.0 nM
[27] = target: Mitogen-activated protein kinase kinase kinase 11 (Homo sapiens) (UniProt Q16584); conditions: Compound concentration 1000.0 nM
[28] = target: Ephrin type-B receptor 1 (Homo sapiens) (UniProt P54762); conditions: Compound concentration 1000.0 nM
[29] = target: Serine/threonine-protein kinase VRK2 (Homo sapiens) (UniProt Q86Y07); conditions: Compound concentration 1000.0 nM
[30] = target: T1, GABA-A receptor; anion channel (Rattus norvegicus); conditions: Compound concentration 10.0 uM; remark: listed apart in the source
[31] = target: Angiopoietin-1 receptor (Homo sapiens) (UniProt Q02763); conditions: Compound concentration 1000.0 nM
[32] = target: Histamine H3 receptor (Homo sapiens) (UniProt Q9Y5N1); conditions: Compound concentration 10.0 uM
[33] = target: Serine/threonine-protein kinase TBK1 (Homo sapiens) (UniProt Q9UHD2); conditions: Compound concentration 1000.0 nM
[34] = target: 5'-AMP-activated protein kinase catalytic subunit alpha-1 (Homo sapiens) (UniProt Q13131); conditions: Compound concentration 1000.0 nM
[35] = target: Serine/threonine-protein kinase haspin (Homo sapiens) (UniProt Q8TF76); conditions: Compound concentration 1000.0 nM
[36] = target: Tyrosine-protein kinase ITK/TSK (Homo sapiens) (UniProt Q08881); conditions: Compound concentration 1000.0 nM
[37] = target: Tyrosine-protein kinase SYK (Homo sapiens) (UniProt P43405); conditions: Compound concentration 1000.0 nM
[38] = target: Cyclin-dependent kinase 9 (Homo sapiens) (UniProt P50750); conditions: Compound concentration 1000.0 nM
[39] = target: Activated CDC42 kinase 1 (Homo sapiens) (UniProt Q07912); conditions: Compound concentration 1000.0 nM
[40] = target: Mitogen-activated protein kinase kinase kinase 6 (Homo sapiens) (UniProt O95382); conditions: Compound concentration 1000.0 nM
[41] = target: Serine/threonine-protein kinase Nek9 (Homo sapiens) (UniProt Q8TD19); conditions: Compound concentration 1000.0 nM
[42] = target: Serine/threonine-protein kinase DCLK2 (Homo sapiens) (UniProt Q8N568); conditions: Compound concentration 1000.0 nM

Sequence of RAF proto-oncogene serine/threonine-protein kinase (Homo sapiens) (P04049 whole entry): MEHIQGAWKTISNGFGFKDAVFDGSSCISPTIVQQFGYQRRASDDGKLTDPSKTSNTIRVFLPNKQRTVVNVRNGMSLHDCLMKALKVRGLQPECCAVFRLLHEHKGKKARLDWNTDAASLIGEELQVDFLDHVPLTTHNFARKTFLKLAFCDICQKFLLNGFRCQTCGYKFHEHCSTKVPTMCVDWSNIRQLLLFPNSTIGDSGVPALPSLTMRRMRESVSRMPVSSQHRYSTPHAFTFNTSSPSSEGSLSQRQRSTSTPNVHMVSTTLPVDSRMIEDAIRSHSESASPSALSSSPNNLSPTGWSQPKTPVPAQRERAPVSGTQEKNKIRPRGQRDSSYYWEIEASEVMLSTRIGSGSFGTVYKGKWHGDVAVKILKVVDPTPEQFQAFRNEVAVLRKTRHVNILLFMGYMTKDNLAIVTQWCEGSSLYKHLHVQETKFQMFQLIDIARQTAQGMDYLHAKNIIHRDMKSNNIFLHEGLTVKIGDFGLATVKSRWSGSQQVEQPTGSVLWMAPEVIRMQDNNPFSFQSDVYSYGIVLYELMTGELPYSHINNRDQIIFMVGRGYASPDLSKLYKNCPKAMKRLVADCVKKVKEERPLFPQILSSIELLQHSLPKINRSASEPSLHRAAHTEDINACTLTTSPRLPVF
Sequence of Mitogen-activated protein kinase kinase kinase 7 (Homo sapiens) (O43318 whole entry): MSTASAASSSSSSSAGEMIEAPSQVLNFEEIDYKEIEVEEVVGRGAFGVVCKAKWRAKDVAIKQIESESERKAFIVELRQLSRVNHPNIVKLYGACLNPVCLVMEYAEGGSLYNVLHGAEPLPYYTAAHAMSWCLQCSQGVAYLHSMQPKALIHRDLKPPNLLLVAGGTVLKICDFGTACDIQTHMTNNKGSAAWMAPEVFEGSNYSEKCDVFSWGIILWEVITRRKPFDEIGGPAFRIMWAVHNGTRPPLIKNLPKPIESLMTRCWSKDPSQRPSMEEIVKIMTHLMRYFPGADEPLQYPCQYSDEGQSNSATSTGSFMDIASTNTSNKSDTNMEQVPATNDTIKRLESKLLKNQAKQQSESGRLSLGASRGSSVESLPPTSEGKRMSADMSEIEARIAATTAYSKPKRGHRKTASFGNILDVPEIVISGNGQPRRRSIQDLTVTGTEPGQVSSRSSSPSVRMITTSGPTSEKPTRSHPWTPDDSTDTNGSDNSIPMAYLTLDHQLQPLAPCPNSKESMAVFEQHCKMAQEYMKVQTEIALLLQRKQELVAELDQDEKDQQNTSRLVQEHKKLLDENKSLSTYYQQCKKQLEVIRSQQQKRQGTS
Sequence of Mitogen-activated protein kinase kinase kinase 6 (Homo sapiens) (O95382 whole entry): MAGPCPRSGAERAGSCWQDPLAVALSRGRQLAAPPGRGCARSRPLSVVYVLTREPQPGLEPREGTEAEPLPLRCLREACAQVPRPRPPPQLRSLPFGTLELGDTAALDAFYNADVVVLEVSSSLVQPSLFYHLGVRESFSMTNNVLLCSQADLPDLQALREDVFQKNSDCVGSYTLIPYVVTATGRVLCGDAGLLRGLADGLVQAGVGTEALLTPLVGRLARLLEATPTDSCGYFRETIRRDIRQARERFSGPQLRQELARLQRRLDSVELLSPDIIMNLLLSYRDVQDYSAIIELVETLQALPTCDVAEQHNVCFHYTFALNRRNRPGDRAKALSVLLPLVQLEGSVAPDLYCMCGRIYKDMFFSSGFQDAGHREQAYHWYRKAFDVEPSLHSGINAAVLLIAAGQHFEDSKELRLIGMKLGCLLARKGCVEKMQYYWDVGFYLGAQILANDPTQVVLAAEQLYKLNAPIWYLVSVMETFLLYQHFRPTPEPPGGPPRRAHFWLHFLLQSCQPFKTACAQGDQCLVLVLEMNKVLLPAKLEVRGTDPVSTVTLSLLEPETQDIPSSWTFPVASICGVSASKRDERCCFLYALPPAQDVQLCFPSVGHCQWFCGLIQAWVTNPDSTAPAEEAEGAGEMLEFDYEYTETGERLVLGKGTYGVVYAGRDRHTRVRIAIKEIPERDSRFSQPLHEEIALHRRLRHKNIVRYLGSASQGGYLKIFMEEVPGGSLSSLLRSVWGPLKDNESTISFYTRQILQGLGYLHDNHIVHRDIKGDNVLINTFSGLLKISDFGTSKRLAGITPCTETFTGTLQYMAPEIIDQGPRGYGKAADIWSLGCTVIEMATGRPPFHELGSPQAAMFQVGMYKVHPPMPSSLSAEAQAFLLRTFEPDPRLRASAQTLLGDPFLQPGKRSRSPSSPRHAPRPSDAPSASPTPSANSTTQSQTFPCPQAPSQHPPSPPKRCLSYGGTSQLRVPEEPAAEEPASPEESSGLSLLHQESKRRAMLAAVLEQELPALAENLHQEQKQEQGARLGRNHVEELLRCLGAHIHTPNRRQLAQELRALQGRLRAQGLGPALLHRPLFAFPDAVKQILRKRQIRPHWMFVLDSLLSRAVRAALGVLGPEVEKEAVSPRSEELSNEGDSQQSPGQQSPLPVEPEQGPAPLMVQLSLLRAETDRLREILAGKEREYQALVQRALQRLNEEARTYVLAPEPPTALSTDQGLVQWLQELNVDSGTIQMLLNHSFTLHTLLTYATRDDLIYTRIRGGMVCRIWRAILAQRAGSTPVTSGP
Sequence of Mitogen-activated protein kinase kinase kinase 20 (Homo sapiens) (Q9NYL2 2-800 limits assumed): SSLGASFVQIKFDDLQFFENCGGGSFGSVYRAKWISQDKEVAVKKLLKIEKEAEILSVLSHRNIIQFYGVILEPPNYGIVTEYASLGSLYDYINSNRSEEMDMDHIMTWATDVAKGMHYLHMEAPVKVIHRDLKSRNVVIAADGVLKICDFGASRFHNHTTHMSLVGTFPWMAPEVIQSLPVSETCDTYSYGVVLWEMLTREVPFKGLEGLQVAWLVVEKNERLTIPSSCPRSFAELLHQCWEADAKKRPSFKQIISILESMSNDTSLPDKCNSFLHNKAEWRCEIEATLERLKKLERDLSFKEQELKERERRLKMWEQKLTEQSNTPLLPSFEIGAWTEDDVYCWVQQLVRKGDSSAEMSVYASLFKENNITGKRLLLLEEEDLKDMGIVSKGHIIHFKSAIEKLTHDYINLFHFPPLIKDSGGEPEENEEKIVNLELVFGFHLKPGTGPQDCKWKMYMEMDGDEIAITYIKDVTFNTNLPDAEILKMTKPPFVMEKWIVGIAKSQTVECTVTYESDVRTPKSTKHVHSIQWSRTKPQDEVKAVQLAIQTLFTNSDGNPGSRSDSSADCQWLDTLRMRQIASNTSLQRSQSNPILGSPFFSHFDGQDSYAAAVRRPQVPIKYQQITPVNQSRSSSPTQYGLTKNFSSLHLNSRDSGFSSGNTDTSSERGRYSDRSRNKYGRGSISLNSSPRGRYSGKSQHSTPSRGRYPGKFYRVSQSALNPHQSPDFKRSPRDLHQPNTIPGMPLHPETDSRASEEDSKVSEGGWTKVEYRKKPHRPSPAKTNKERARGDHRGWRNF
Sequence of Interleukin-1 receptor-associated kinase 1 (Homo sapiens) (P51617 whole entry, looked up): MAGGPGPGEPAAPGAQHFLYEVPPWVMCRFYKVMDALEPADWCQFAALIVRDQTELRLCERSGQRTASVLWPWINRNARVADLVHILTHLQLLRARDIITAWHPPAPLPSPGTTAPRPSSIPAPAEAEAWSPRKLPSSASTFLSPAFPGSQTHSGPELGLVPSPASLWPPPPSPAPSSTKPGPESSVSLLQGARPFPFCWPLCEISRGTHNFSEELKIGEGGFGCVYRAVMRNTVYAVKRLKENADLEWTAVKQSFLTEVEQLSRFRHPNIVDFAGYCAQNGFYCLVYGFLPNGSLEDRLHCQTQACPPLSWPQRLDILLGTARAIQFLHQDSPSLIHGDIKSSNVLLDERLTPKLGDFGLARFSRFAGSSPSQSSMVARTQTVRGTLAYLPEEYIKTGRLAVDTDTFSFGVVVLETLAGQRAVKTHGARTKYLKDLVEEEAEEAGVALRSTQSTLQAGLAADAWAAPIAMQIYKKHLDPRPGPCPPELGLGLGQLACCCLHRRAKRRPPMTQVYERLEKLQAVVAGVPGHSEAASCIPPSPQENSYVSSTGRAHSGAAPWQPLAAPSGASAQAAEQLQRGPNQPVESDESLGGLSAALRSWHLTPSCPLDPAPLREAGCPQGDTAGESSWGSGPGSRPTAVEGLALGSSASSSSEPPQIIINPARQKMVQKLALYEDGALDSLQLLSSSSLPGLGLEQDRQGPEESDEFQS
Sequence of 5'-AMP-activated protein kinase catalytic subunit alpha-1 (Homo sapiens) (Q13131 whole entry, looked up): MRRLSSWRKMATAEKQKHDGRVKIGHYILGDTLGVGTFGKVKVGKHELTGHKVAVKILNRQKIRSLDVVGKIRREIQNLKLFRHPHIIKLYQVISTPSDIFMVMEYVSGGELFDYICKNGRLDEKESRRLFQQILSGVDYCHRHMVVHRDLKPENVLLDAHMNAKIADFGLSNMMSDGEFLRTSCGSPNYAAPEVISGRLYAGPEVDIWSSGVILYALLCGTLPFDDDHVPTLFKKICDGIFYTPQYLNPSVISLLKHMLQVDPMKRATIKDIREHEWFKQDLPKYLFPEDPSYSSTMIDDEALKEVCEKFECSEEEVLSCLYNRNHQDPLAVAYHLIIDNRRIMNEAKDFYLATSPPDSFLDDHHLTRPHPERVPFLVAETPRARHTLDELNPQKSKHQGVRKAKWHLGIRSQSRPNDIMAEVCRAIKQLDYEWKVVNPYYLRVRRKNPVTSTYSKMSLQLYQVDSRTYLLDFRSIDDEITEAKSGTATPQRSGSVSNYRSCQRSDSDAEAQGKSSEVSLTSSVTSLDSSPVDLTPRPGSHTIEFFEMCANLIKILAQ
Sequence of Cyclin-dependent kinase 9 (Homo sapiens) (P50750 whole entry): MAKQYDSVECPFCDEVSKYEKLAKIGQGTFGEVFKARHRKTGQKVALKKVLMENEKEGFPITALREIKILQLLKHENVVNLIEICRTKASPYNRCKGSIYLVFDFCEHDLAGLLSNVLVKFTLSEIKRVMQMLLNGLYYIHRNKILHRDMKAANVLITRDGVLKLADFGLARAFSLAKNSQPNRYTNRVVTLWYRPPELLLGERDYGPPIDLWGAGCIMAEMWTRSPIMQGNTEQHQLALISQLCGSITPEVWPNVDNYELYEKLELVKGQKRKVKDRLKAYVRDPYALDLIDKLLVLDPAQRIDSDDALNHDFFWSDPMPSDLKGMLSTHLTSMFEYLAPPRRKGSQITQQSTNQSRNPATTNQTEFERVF

Nc1cnc(N2CCc3cc(S(=O)(=O)Nc4c(F)cc(Cl)cc4F)cc(N4CCCC4=O)c32)nc1
inactive: residual activity [1] 94% | residual activity [2] 100% | residual activity [3] 80% | inhibition [4] -1.31% | residual activity [5] 97% | residual activity [6] 60% | residual activity [7] 100% | residual activity [8] 100% | residual activity [9] 100% | residual activity [10] 100% | residual activity [11] 92% | inhibition [12] -1.96% | residual activity [13] 80% | residual activity [14] 100% | residual activity [15] 100% | residual activity [16] 100% | residual activity [17] 100% | residual activity [18] 100% | residual activity [19] 79% | residual activity [20] 95% | residual activity [21] 100% | residual activity [22] 100% | residual activity [23] 99% | residual activity [24] 100% | residual activity [25] 89% | residual activity [26] 94% | residual activity [27] 100% | residual activity [28] 92% | residual activity [29] 100% | inhibition [30] 20.5% | residual activity [31] 78% | inhibition [32] -1.21% | residual activity [33] 85% | residual activity [34] 100% | residual activity [35] 100% | residual activity [36] 100% | residual activity [37] 100% | residual activity [38] 100% | residual activity [39] 91% | residual activity [40] 75% | residual activity [41] 98% | residual activity [42] 100%

Cn1nc(C(F)(F)F)cc1-c1cnc(N2CCc3cc(S(=O)(=O)Nc4c(F)cc(Cl)cc4F)cc(N4CCCC4=O)c32)nc1 [TP-020]
inactive: residual activity [1] 100% | residual activity [2] 100% | residual activity [3] 87% | inhibition [4] 9.44% | residual activity [5] 87% | residual activity [6] 94% | residual activity [7] 72% | residual activity [8] 78% | residual activity [9] 88% | residual activity [10] 95% | residual activity [11] 84% | inhibition [12] 35.9% | residual activity [13] 77% | residual activity [14] 79% | residual activity [15] 100% | residual activity [16] 83% | residual activity [17] 100% | residual activity [18] 100% | residual activity [19] 100% | residual activity [20] 98% | residual activity [21] 82% | residual activity [22] 86% | residual activity [23] 79% | residual activity [24] 73% | residual activity [25] 100% | residual activity [26] 77% | residual activity [27] 100% | residual activity [28] 100% | residual activity [29] 61% | inhibition [30] 7.89% | residual activity [31] 99% | inhibition [32] 0.43% | residual activity [33] 95% | residual activity [34] 98% | residual activity [35] 68% | residual activity [36] 97% | residual activity [37] 100% | residual activity [38] 100% | residual activity [39] 100% | residual activity [40] 67% | residual activity [41] 100% | residual activity [42] 100%

Reference: ChEMBL document CHEMBL4507302, “Data for DCP probe TP-020” (2021)
